Results: PMC12190736, “Development and In Vitro Characterization of [^3H]GMC-058 as Radioligand for Imaging Parkinsonian-Related Proteinopathies” (Cells, 2025)
Where two headings read alike, the source gives them in different places.

What was measured:
[1] = target: recombinant α-syn fibrils (Homo sapiens, UniProt P37840); assay: Radioligand binding displacement of [^3H]-α-syn-tool on α-syn fibrils; settings: 5 nM [^3H]-α-syn-tool
Protocol: Compound affinity for α-syn fibrils was measured by means of radioligand binding displacement experiments of an AbbVie tool radioligand with high affinity for α-syn fibrils ([^3H]-α-syn-tool). The aggregation of α-syn monomers into fibrils was obtained as described by Bousset et al.. In brief, monomers (5 mg/mL, prepared in AbbVie (Worcester, MA, USA) were incubated in 150 mM of KCl and 50 mM of Tris-HCl (pH 7.5) for 7 days at 37 °C, under constant shaking conditions (650 rpm, Eppendorf Thermomixer C, Eppendorf, Hamburg, Germany). After incubation, the fibrils were harvested via ultra-centrifugation (40,100× g, 30 min, 20 °C), resuspended in buffer, sonicated (40% amplitude, 10 s pulse on, 5 s pulse off) for 4.5 min at 20 °C, divided into aliquots (5.5 mg/mL), and stored at −80 °C until the day of the experiment. The characterization of the fibrils included protein content determination (BCA method) and an analysis of Proteinase K degradation pattern.
On the day of the experiment, α-syn fibrils were thawed for a few minutes at 37 °C, diluted in Dulbecco’s Phosphate Buffered Saline (PBS) without calcium and magnesium, pH = 7.4 (DPBS) plus 0.1% bovine serum albumin (BSA), and incubated (at the final fibrils concentration of 2.5 µg/mL) for 60 min, at room temperature (RT), with 5 nM [^3H]-α-syn-tool, in the absence or presence of different concentrations of non-radiolabeled compounds. Bound radioligand was separated from free radioligand via rapid filtration and washings with cold DPBS, using a Unifilter-96 GF/B filter plate (PerkinElmer, Rodgau, Germany) presoaked in 0.3% polyethylenimmine (PEI) and a Unifilter Cell Harvester (PerkinElmer, Rodgau, Germany). Plates were air-dried, and the scintillation liquid (Betaplate Scint, PerkinElmer) was added and counted using a MicroBeta2 2450 (Perkinelmer, Rodgau, Germany). Non-specific binding (NSB) was defined as the binding in the presence of 10 µM unlabeled α-syn tool. Data fitting and the constant of inhibition (Ki) calculation was performed using the software platform from Dotmatics (Boston, MA, USA).

Aβ fibrils = Aβ fibrils (Homo sapiens, UniProt P05067); assay: [^3H]PiB binding displacement on AD brain homogenates; settings: AD brain homogenate, 1 nM [^3H]PiB
Sequence of Aβ fibrils (P05067 672-711 limits assumed): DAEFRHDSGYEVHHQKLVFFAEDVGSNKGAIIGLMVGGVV
Protocol: (§1) Compounds’ affinity for tau and Aβ fibrils was measured by means of radioligand binding displacement experiments on AD brain homogenates, using [^3H]NFT-355 [8] (AbbVie, North Chicago, IL, USA) and [^3H]Pittsburg Compound-B (PiB; Novandi Chemistry AB, Södertälje, Sweden) to label tau and Aβ aggregates, respectively. Flash-frozen tissue from the frontal cerebral cortex of an AD (Braak stage V) brain was purchased from Analytical Biological Services Inc. (ABS; Wilmington, DE, USA), homogenized in DPBS, divided into aliquots (10 mg/mL), and stored at −80 °C until the day of the experiment.
(§2) On the day of the experiment, the brain homogenate was brought to RT, diluted in DPBS plus 0.1% BSA and incubated for 90 min, at RT, with 0.5 nM [^3H]NFT-355 or 1 nM [^3H]PiB, in the absence or presence of different concentrations of non-radiolabeled compounds. Bound radioligand was separated from free radioligand via rapid filtration and washings with cold DPBS, using a Unifilter-96 GF/B filter plate (presoaked in 0.3% PEI) and a Unifilter Cell Harvester (PerkinElmer). Plates were air-dried, and the scintillation liquid (Betaplate Scint, PerkinElmer) was added and counted using a MicroBeta2 2450. NSB was defined as the binding in the presence of 10 µM T808 [10] (AbbVie Germany) and 10 µM PiB for [^3H]NFT-355 and [^3H]PiB, respectively. Data fitting was performed using the software platform from Dotmatics (Boston, MA, USA).

tau fibrils = tau fibrils (Homo sapiens, UniProt P10636); assay: [^3H]NFT-355 binding displacement on AD brain homogenates; settings: AD brain homogenate, 0.5 nM [^3H]NFT-355
Sequence of tau fibrils (P10636 623-708 limits assumed): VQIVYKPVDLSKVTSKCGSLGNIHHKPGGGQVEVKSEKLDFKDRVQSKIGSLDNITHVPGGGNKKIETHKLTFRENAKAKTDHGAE
Protocol: as §1, §2

[2] = test system: fresh-frozen human brain sections; assay: Autoradiography on fresh-frozen brain tissue sections; assay type: binding; settings: for NSB: 5 µM GMC044; for NSB / Total Minus NSB / Total binding: gray matter of cingulate cortex, control C03; for Binding displaced by GMC-044: 5 µM GMC-044, control cingulate cortex tissue; for Binding in control tissue: cingulate cortex of healthy controls
Protocol: Selections of frozen human sections (described in Table 2 and Table 3) were used for binding autoradiography. Sections were first pre-incubated for 20 min in binding buffer [50 mM Tris-HCl (pH 7.4), 120 mM NaCl, 5 mM KCl, 2 mM CaCl2, 1 mM MgCl2, and 0.1% BSA] and then incubated with [^3H]GMC-058 (specific activity 22 Ci/mmol); [^3H]GMC-073 (specific activity 23.4 Ci/mmol); or […] in binding buffer for 180 min at RT. In the pilot autoradiography experiment (Figure A1). [^3H]GMC-058 was tested at 25 and 50 nM, while [^3H]GMC-073 and [^3H]GMC-098 were each tested at 10 and 20 nM. For all other autoradiography in fresh-frozen tissue sections, 25 nM [^3H]GMC-058 was used. To determine NSB, adjacent brain sections were incubated with [^3H]-tracer mixed with 5 μM of unlabeled GMC-044. The binding reaction was stopped with two 10 min washes in washing buffer [50 mM Tris-HCl (pH 7.4) at 4 °C] and a brief dip in cold distilled water. Slides were allowed to air-dry before being placed under storage phosphor screens (Fujifilm Plate BAS-TR2025, Fujifilm, Tokyo, Japan) in imaging cassettes for 90 h together with ART0123C and ART0123B tritium standards on glass slides (American Radiolabeled Chemicals Inc., St. Louis, MO, USA). Storage phosphor screens were scanned using an Amersham Typhoon FLA-9500 phosphor imaging scanner (Cytiva, Marlborough, MA, USA), and the resulting images were analyzed using Multi Gauge 3.2 phosphor imager software (Fujifilm, Tokyo, Japan) for ROI delimitation, density calibration, and quantification. Quantitative binding data from duplicates of the total, and NSB were plotted and analyzed using graphPad Prism v10 (GraphPad Software, Boston, MA, USA). Specific binding was determined by subtracting the non-specific signal from the total signal. The toluidine blue staining of adjacent sections was used to obtain anatomical references for white- and gray-matter ROI selection. Care was taken not to include artifact signals in the ROIs analyzed. These artifacts were identified as randomly placed punctate signals appearing in both total and NSB images, and they often coincided with small folds or tears in the tissue sections.

α-syn = settings: cited from earlier work
Aβ = settings: AD; read-out: IC50 or KD Aβ; cited from earlier work
pTau = settings: AD; read-out: IC50 or KD pTau; cited from earlier work

| SMILES | Ki [1] [µM] | Ki (Aβ fibrils) [µM] | Ki (tau fibrils) [µM] | also measured |
| --- | --- | --- | --- | --- |
| COc1ccc(-c2ccc(NC(=O)N3CCN(c4ccccn4)CC3)cc2C#N)cc1 [GMC015] | 0.0283 | 0.294 | 0.761 |  |
| [3H]c1ccc(N2CCN(C(=O)Nc3ccc(-c4ccc(OC)cc4)c(C#N)c3)CC2)cc1 [[^3H]GMC-098, N-(2-cyano-4′-methoxy-[1,1′-biphenyl]-4-yl)-4-([4-3H]phenyl)piperazine-1-carboxamide] |  |  |  | NSB ([2]; 10 nM radioligand): 1878 ± 74.1 fmol/mg tissue equivalent; Total Minus NSB ([2]; 10 nM radioligand): 827 fmol/mg; Total binding ([2]; 10 nM radioligand): 2705 ± 62.2 fmol/mg tissue equivalent; NSB ([2]; 20 nM radioligand): 2336 ± 48.5 fmol/mg tissue equivalent; Total Minus NSB ([2]; 20 nM radioligand): 2810 fmol/mg; Total binding ([2]; 20 nM radioligand): 5146 ± 386.2 fmol/mg tissue equivalent; Binding displaced by GMC-044 [2]: approximately 50%; Binding in control tissue [2]: clear binding |
| O=C1c2cn(-c3ccc(N4CC[C@@H](F)C4)nc3)nc2CN1c1cccnc1 [[^18F]ACI-12589] |  |  |  | Kd (α-syn; MSA, read-out: IC50 or KD α-syn (converted)): 0.028 µM; Kd (α-syn; PD and MSA tissue, read-out: KD): ~0.03 µM; Kd (α-syn; sporadic PD, read-out: IC50 or KD α-syn (converted)): 0.0335 ± 0.0174 µM; Kd (Aβ): 0.317 µM; Kd (pTau): 0.317 µM |
| COc1ccc(CC(=O)Nc2ccc(N3CCN(c4ccc(C#N)cn4)CC3)cc2)cc1 [GMC025] | 0.0297 | 0.141 | 0.05 |  |
| COc1cccc(CC(=O)Nc2ccc(N3CCN(c4ccc(C#N)cn4)CC3)cc2)c1 [GMC024] | 0.0253 | 0.081 | 0.068 |  |
| [3H]c1cccc(NC(=O)Nc2ccc(N3CCN(c4ccc(F)cc4)CC3)c(C#N)c2)c1OC [[^3H]GMC-073, 1-(3-cyano-4-(4-(4-fluorophenyl)piperazin-1-yl)phenyl)-3-(2-methoxy-[3-3H]-phenyl)urea] |  |  |  | NSB ([2]; 10 nM radioligand): 346.9 ± 14.5 fmol/mg tissue equivalent; Total Minus NSB ([2]; 10 nM radioligand): 318 fmol/mg; Total binding ([2]; 10 nM radioligand): 664.6 ± 24.3 fmol/mg tissue equivalent; NSB ([2]; 20 nM radioligand): 1022 ± 45 fmol/mg tissue equivalent; Total Minus NSB ([2]; 20 nM radioligand): 848 fmol/mg; Total binding ([2]; 20 nM radioligand): 1870 ± 100.2 fmol/mg tissue equivalent; Binding displaced by GMC-044 [2]: approximately 50%; Binding in control tissue [2]: clear binding |
| CNc1cnc(C#C/C=C/c2nc3ccc(OCC(O)CF)cc3s2)cn1 (centres unmarked) [[^18F]SPAL-T-06] |  |  |  | IC50 (α-syn; MSA, read-out: IC50 or KD α-syn): 0.0025 µM; IC50 (α-syn; brain homogenates from DLB or MSA cases, homologous competition binding studies, read-out: IC50): 0.002 to 0.003 µM |
| C[C@@H](C(=O)Nc1ccc(N2CCN(c3ccc(C#N)cn3)CC2)cc1)c1ccccc1 [GMC044] | 0.0252 | 3.44 | 0.692 |  |
| COc1ccc(/C=C/c2ccc(N3CCN(c4ccc(C#N)cn4)CC3)cc2)cn1 [GMC013_FR-1] | 0.0255 | 0.063 | 0.151 |  |

More lines, in order of falling Ki [1], values ahead:

| Ki [1] [µM] | Ki (Aβ fibrils) [µM] | Ki (tau fibrils) [µM] | SMILES | also measured |
| --- | --- | --- | --- | --- |
| 0.0239 | 0.404 | 2.51 | COc1ccccc1CC(=O)Nc1ccc(N2CCN(c3ccc(F)cc3)CC2)nc1 [GMC079] |  |
| 0.0225 | 1.49 | 1.32 | COc1ccc(N2CCN(c3ccc(NC(=O)C(C)(C)C)cc3)CC2)cc1 [GMC-058] |  |
| 0.0222 | 0.889 | 2.51 | O=C(Nc1ccc(N2CCN(Cc3ccc(Cl)c(Cl)c3)CC2)cc1)c1cnccn1 [GMC021] |  |
| 0.0212 | 0.151 | 0.044 | COc1ccccc1CC(=O)Nc1ccc(N2CCN(c3ccc(C#N)cn3)CC2)cc1 [GMC023] |  |
| 0.0152 | 0.809 | 0.026 | COc1ccccc1CC(=O)Nc1ccc(N2CCN(c3ccc(F)cc3)CC2)cc1C#N [GMC086] |  |
| 0.0145 | 2.63 | 2.51 | COc1ccc(-c2ccc(NC(=O)N3CCN(c4ccc(C#N)cn4)CC3)cc2C#N)cc1 [GMC095] |  |
| 0.0142 | 8.18 | 0.086 | COc1ccccc1NC(=O)Nc1ccc(N2CCN(c3ccccn3)CC2)c(C#N)c1 [GMC071] |  |
| 0.0097 | 0.226 | 0.805 | COc1ccc(-c2ccc(NC(=O)N3CCN(c4ccccc4)CC3)cc2C#N)cc1 [GMC-098] |  |
| 0.008 | 2.63 | 0.248 | COc1ccccc1NC(=O)Nc1ccc(N2CCN(c3ccc(F)cc3)CC2)c(C#N)c1 [GMC-073] |  |
| 0.0068 | 0.064 | 0.09 | COc1ccccc1NC(=O)Nc1ccc(N2CCN(c3ccccn3)CC2)cc1 [GMC070] |  |
| 0.0065 | 0.051 | 2.51 | COc1ccc(-c2ccc(NC(=O)N3CCN(c4ccc(OC)cc4)CC3)cc2C#N)cc1 [GMC096] |  |
